According to PMC5357622, “Chelation Motifs Affecting Metal-dependent Viral Enzymes: N′-acylhydrazone Ligands as Dual Target Inhibitors of HIV-1 Integrase and Reverse Transcriptase Ribonuclease H Domain” (Frontiers in Microbiology, 2017):
Values joined by “and” are separate entries in the source; they are usually repeats but may differ in a detail not shown here. Identical values can stand only once.

Columns and labels:
[1] = molecular target: HIV-1 IN in presence of LEDGF/p75 (Human immunodeficiency virus type 1 group M subtype B, UniProt P03366); assay: HIV-1 IN/LEDGF HTRF LEDGF-dependent integration assay
HIV-1 IN in presence of LEDGF/p75, sequence (O75475 whole entry, other chains not shown): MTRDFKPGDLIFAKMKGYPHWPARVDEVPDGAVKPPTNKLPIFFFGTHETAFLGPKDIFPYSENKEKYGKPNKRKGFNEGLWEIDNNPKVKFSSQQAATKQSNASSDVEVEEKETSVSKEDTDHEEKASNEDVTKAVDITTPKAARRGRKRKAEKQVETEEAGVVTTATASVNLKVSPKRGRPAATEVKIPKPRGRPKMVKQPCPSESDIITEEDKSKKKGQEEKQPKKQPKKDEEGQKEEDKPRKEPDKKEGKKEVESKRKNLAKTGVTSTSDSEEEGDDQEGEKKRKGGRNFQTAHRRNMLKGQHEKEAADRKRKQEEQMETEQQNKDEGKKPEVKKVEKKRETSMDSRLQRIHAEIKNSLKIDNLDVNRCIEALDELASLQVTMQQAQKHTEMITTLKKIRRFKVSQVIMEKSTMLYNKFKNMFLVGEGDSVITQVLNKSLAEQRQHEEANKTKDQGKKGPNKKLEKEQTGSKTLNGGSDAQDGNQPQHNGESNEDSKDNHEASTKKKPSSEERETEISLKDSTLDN
Experimental: The IN-LEDGF/p75 dependent assay allows to measure the inhibition of 3′ processing and strand transfer IN reactions in presence of recombinant LEDGF/p75 protein, as previously described ([Tintori et al., 2015]). Briefly, 50 nM IN was pre-incubated with increasing concentration of compounds for 1 h at room temperature in reaction buffer containing 20 mM HEPES pH 7.5, 1 mM DTT, 1% glycerol, 20 mM MgCl2, 0.05% Brij-35 and 0.1 mg/ml BSA. DNA donor substrate, DNA acceptor substrate and 50 nM LEDGF/p75 protein were added and incubated at 37°C for 90 min. After the incubation, 4 nM of Europium-Streptavidin were added to the reaction mixture and the HTRF signal was recorded using a Perkin Elmer Victor 3 plate reader using a 314 nm for excitation wavelength and 668 and 620 nm for the wavelength of the acceptor and the donor substrates emission, respectively.

in vitro = type: cell-based; settings: human
Experimental: (§1) The procedure to determine anti-HIV activity and cytotoxicity of the compounds in human lymphocyte MT-4 cells was published elsewhere ([Pannecouque et al., 2008]). Briefly, serial dilutions of the compounds were added to 96-well plates containing the MT-4 cells. To the virus-infected wells, 100–300 CCID50 (50% cell culture infectious dose-50%) of HIV-1 (strain IIIB) or HIV-2 (strain ROD) was added. The mock-infected wells received the compounds without the virus. After 5 days incubation, the spectrophotometric MTT assay was performed to determine the effect of the compounds on the viability of the mock- and HIV-infected cells.

HIV-1 (strain IIIB) = assay: Cell-based HIV assay in MT-4 cells (MTT, virus-induced cytopathic effect); settings: Human immunodeficiency virus 1, IIIB
Experimental: as §1

[2] = molecular target: T1, HIV-1 RT-associated RNase H (Human immunodeficiency virus type 1 group M subtype B, UniProt P03366); assay: HIV-1 RT-associated RNase H assay (fluorescent RNA/DNA hybrid); type: biochemical
T1 construct: Human immunodeficiency virus type 1 heterodimeric RT was expressed and purified; made in house
Experimental: Human immunodeficiency virus type 1 heterodimeric RT was expressed and purified as previously described ([Esposito et al., 2011]; [Meleddu et al., 2014]). The HIV-1 RT-associated RNase H activity was measured as described ([Corona et al., 2014a]; [Meleddu et al., 2015]). Briefly, 20 ng of HIV-1 RT was incubated in 100 μL reaction volume containing 50 mM Tris-HCl (pH 7.8), 6 mM MgCl2, 1 mM DTT, 80 mM KCl, hybrid RNA/DNA (5′-[…]-3′-Fluorescein, 5′-[…]-3′-Dabcyl) and 2 nM RT. The reaction mixture was incubated for 1 h at 37°C; the reaction was stopped by addition of EDTA and products were measured with a Victor 3 (Perkin Elmer model 1420-051) equipped with filters for 490/528 nm (excitation/emission wavelength).

Row | SMILES | IC50 [1] [µM] | IC50 [2] | other results
1 | O=C(N/N=C/c1ccc(O)cc1O)c1cc(O)c(O)c(O)c1 [Compound 18] | 16 ± 3 | 1.7 ± 0.1 µM | CC50 at 5 days (in vitro): 61 µM; EC50 (HIV-1 (strain IIIB); MT4, 120 h, read-out: EC50 for HIV-1 (50% protection from virus-induced cytopathic effect), 5 days, mean ± SD of two independent tests): 17 ± 4 µM; inhibition at 25 µM (HIV-1 (strain IIIB); MT4, at a concentration of 25 μM): 55 to 82%; RNase H inhibition potency relative to IN activity ([2]; RNase H versus IN): ninefold more potently
2 | O=C(N/N=C/c1cc(O)c(O)c(O)c1)c1ccccc1O [Compound 10] | > 100 | 4.1 ± 0.2 µM | 
3 | O=C(N/N=C/c1cc(O)ccc1O)c1cc(O)c(O)c(O)c1 [Compound 16] | 69 ± 5 | 2.1 ± 0.1 µM | 
4 | O=C(N/N=C/c1ccc(O)c(O)c1O)c1cc(O)c(O)c(O)c1 [Compound 20] | 0.085 ± 0.025 | 0.175 µM and 0.17 µM | 
5 | O=C(N/N=C/c1ccc(O)c(O)c1O)c1ccccc1O [Compound 7] | 7.1 ± 0.2 | 25 µM and 25.3 µM | 
6 | CCCCCCCC(=O)N/N=C/c1cccc(OC)c1O [Compound 2] |  | ~60 µM and 62 µM | 
7 | O=C(N/N=C/c1cc(O)c(O)c(O)c1)c1cc(O)c(O)c(O)c1 [Compound 23] | 0.165 ± 0.025 | 0.18 ± 0.03 µM | 
8 | COc1ccc(O)c(/C=N/NC(=O)c2cc(O)c(O)c(O)c2)c1 [Compound 17] | > 100 | 2 ± 0.5 µM | 
9 | COc1cc(C(=O)N/N=C/c2cc(O)ccc2O)cc(OC)c1OC [Compound 19] | > 100 | > 100 µM | 
10 | CCCCCCCC(=O)N/N=C/c1cccc(O)c1O [Compound 1, N′-2,3-dihydroxy benzylidene heptyl hydrazone] | > 100 | ~60 µM and 61 µM | 
11 | O=C(N/N=C/c1c(O)cc(O)cc1O)c1cc(O)c(O)c(O)c1 [Compound 22] | 1.8 ± 0.1 | 9.7 ± 1.6 µM | 
12 | O=C(N/N=C/c1ccccn1)c1cc(O)c(O)c(O)c1 [Compound 12] | > 100 | 3.2 ± 0.5 µM | 
13 | COc1cccc(/C=N/NC(=O)c2ccccc2O)c1O [Compound 6] | > 100 | 37 ± 5 µM | 
14 | COc1cccc(/C=N/NC(=O)c2cc(O)c(O)c(O)c2)c1O [Compound 15] | > 100 | 0.92 ± 0.02 µM | 
15 | O=C(N/N=C/c1ccccc1O)c1cc(O)c(O)c(O)c1 [Compound 13] | > 100 | 2.3 ± 0.7 µM | 
16 | O=C(N/N=C/c1ccccc1)c1cc(O)c(O)c(O)c1 [Compound 11] | > 100 | 2.6 ± 0.6 µM | 
17 | O=C(N/N=C/c1cccc(O)c1O)c1ccccc1O [Compound 5] |  | > 100 µM | HIV-1 RNase H IC50 [2]: No inhibition
18 | O=C(N/N=C/c1cccc(O)c1O)c1cc(O)c(O)c(O)c1 [Compound 14] | > 100 | 3.1 ± 0.5 µM | 
19 | O=C(N/N=C/c1cccc(O)c1O)c1ccccc1 [Compound 3] | > 100 | > 100 µM | HIV-1 RNase H IC50 [2]: completely abolished
20 | CCOC(=O)C(=O)CC(=O)/C=C/c1cccn1Cc1ccc(F)cc1 [RDS1643, reference compound] |  | 7.5 ± 0.9 µM | 
21 | O=C(N/N=C/c1cc(O)c(O)cc1O)c1ccccc1O [Compound 8] | 30 ± 1 | 8.8 ± 3.1 µM | 
22 | O=C(N/N=C/c1cc(O)c(O)cc1O)c1cc(O)c(O)c(O)c1 [Compound 21] | 0.08 ± 0.01 | 0.62 ± 0.1 µM | 
23 | O=C(N/N=C/c1c(O)cc(O)cc1O)c1ccccc1O [Compound 9] | 9.4 ± 0.4 | 9.6 ± 3.4 µM | 
24 | COc1cccc(/C=N/NC(=O)c2ccccc2)c1O [Compound 4] |  | > 100 µM | HIV-1 RNase H IC50 [2]: completely abolished
